From US6369034B1, “Functionalized alkyl and alenyl side chain derivatives of glycinamides as farnesyl transferase inhibitors” (Warner-Lambert Company, priority 1998, dated 2002)
Like-named read-outs stand apart in the source and are kept apart here.

Tests used:
[1] = target: T1, SF9 affinity purified rat FPT (Rattus norvegicus, UniProt Q02293+Q04631); assay: PFT inhibitory activity; assay type: biochemical; conditions: average of two tests
T1 construct: made in house; host or cells: Sf9 insect cells
Protocol: The protein:farnesyl transferase (PFT) or farnesyl protein transferase (FPT) inhibitory activity of compounds of the present invention were assayed in HEPES buffer (pH 7.4) containing 5 mM potassium phosphate and 20 μM ZnCl2. The solution also contained 5 mM DTT (dithiothreitol), 5 mM MgCl2, and 0.1% PEG 8000. Assays were performed in 96 well plates (Wallec) and employed solutions composed of varying concentrations of a compound of the present invention in 10% DMSO (dimethylsulfoxide). Upon addition of both substrates, radiolabeled farnesyl pyrophosphate ([1^3H], specific activity 15-30 Ci/mmol, final concentration 134 nM) and (biotinyl)-Ahe-Thr-Lys-Cys-Val-Ile-Met ([3aS[3a alpha, 4 beta, 6a alpha]-hexahydro-2-oxo-1H-thieno[3,4-d]imidazole-5-pentanoic acid]-[7-aminoheptanoic acid]-Thr-Lys-Cys-Val-Ile-Met) (Ahe is 7-aminoheptanoic acid, Thr is threonine, Lys is lysine, Cys is cysteine, Val is valine, Ile is isoleucine, and Met is methionine) (final concentration 0.2 4μM), the enzyme reaction was started by addition of SF9 affinity purified rat FPT. After incubation at 30° C. for 30 minutes, the reaction was terminated by diluting the reaction 2.5-fold with a stop buffer containing 1.5 M magnesium acetate, 0.2 M H3PO4, 0.5% BSA (bovine serum albumin), and strepavidin beads (Amersham) at a concentration of 1.3 mg/mL. After allowing the plate to settle for 30 minutes at room temperature, radioactivity was quantitated on a microBeta counter (Model 1450, Wallec). The assay was also carried out without 5 mM potassium phosphate.

[2] = tested on: Ras protein in ras-transformed cells; assay: Gel Shift Assay; assay type: cell-based; conditions: 18-hour incubation, read-out: Gel Shift (μM) MED
Protocol: Twenty-four hours after planting 2×10^6 ras-transformned cells per treatment condition, the farnesylation inhibitor is added at varying concentrations. Following an 18-hour incubation period, cells are lysed in phosphate-buffered saline containing 1% Triton X-100, 0.5% sodium deoxycholate, and 0.1% SDS (sodium dodecyl sulfate), pH 7.4 in the presence of several protease inhibitors (PMSF (phenylmethylsulfonylfluoride), antipain, leupeptin, pepstatin A, and aprotinin all at 1 μg/mL). Ras protein is immunoprecipitated from the supernatants by the addition of 3 μg v-H-ras Ab-2 (Y13-259 antibody from Oncogene Science). After overnight immunoprecipitation, 30 μL of a 50% protein G-Sepharose slurry (Pharmacia) is added followed by 45-minute incubation. Pellets are resuspended in 2×tris-glycine loading buffer (Novex) containing 5% mercaptoethanol and then denatured by 5 minutes boiling prior to electrophoresis on 14% Tris-glycine SDS gels. Using Western transfer techniques, proteins are transferred to nitrocellulose membranes followed by blocking in blocking buffer. Upon overnight incubation with primary antibody (pan-ras Ab-2 from Oncogene Science), an antimouse HRP (horse radish peroxidase) conjugate secondary antibody (Amersham) is employed for detection of the ras protein. Blots are developed using ECL(enhanced chemiluminescence) techniques (Amersham).

[3] = tested on: human lung carcinoma with K-ras mutation and p53 deletion; conditions: nude mice; cited from earlier work
[4] = tested on: mammary and salivary carcinomas; conditions: daily administration; ras transgenic mice; cited from earlier work
[5] = HEPES buffer pH 7.4, without 5 mM potassium phosphate, read-out: IC50 (μM) Hepes
[6] = HEPES buffer pH 7.4 containing 5 mM potassium phosphate, read-out: IC50 (μM) Hepes/5 mM KPO4^−2

| SMILES | IC50 [1, 5] [µM] | IC50 [1, 6] [µM] | minimal effective concentration [2] [µM] | tumor growth [3] | tumor regression [4] |
| --- | --- | --- | --- | --- | --- |
| C[C@@H](c1ccccc1)N(CC(=O)NCC(C)(C)c1ccccc1)C(=O)[C@H](Cc1c[nH]cn1)NC(=O)OCc1ccccc1 [Example 1, Benzyl N-((1S)-1-(1H-4-imidazolylmethyl)-2-2-[(2-methyl-2-phenylpropyl)amino]-2-oxoethyl[(1S)-1-phenylethyl]amino-2-oxoethyl)carbamate] | 0.57 | 0.001 | 0.01 |  |  |
| CNCCN(CC(=O)NCC(C)(C)c1ccccc1)C(=O)[C@H](Cc1c[nH]cn1)NC(=O)OCc1ccccc1 [Example 7, Benzyl N-[(1S)-1-(1H-4-imidazolylmethyl)-2-([2-(methylamino)ethyl]-2-[(2-methyl-2-phenylpropyl)amino]-2-oxoethylamino)-2-oxoethyl]carbamate] | > 30 | 0.92 |  |  |  |
| C/C=C/CN(CC(=O)NCC(C)(C)c1ccccc1)C(=O)[C@H](Cc1c[nH]cn1)NC(=O)OCc1ccccc1 [Example 9, Benzyl N-[2-((E)-2-butenyl-2-[(2-methyl-2-phenylpropyl)amino]-2-oxoethylamino)-1-(1H-4-imidazolylmethyl1)-2-oxoethyl]carbamate] | 1.4 | 0.011 | 0.01 |  |  |
| CC(C)(CNC(=O)CN(CCN1CCOCC1)C(=O)[C@H](Cc1c[nH]cn1)NC(=O)OCc1ccccc1)c1ccccc1 [Example 11, Benzyl N-(1S)-1-(1H-4-imidazolylmethyl)-2-[2-[(2-methyl-2-phenylpropyl)amino]-2-oxoethyl(2-morpholinoethyl)amino]-2-oxoethylcarbamate] | 2.1 | 0.016 | 0.2 |  |  |
| CSCCN(CC(=O)NCC(C)(C)c1ccccc1)C(=O)C(Cc1cnc[nH]1)NC(=O)OCc1ccccc1 (centres unmarked) [Example 14, {2-(3H-Imidazol-4-yl)-1-[[(2-methyl-2-phenyl-propylcarbamoyl)-methyl]-(2-methylsulfanyl-ethyl)-carbamoyl]-ethyl}-carbamic acid benzyl ester] | 1.2 | 0.006 | 0.05 |  |  |
| CSCC[C@H](NC(=O)c1ccc(NC[C@@H](N)CS)cc1-c1ccccc1)C(=O)O [FT1276] |  |  |  | selectively block tumor growth |  |
| CC[C@H](C)[C@@H](CO[C@@H](Cc1ccccc1)C(=O)N[C@@H](CCS(C)(=O)=O)C(=O)OC(C)C)NC[C@@H](N)CS [L-744,832] |  |  |  |  | caused tumor regression |

More lines, in order of falling IC50 [1, 5], values ahead:

| IC50 [1, 5] [µM] | IC50 [1, 6] [µM] | SMILES | minimal effective concentration [2] [µM] | tumor growth [3] | tumor regression [4] |
| --- | --- | --- | --- | --- | --- |
| 36 | 0.072 | CC(C)(CNC(=O)CN(CCN)C(=O)C(Cc1cnc[nH]1)NC(=O)OCc1ccccc1)c1ccccc1 (centres unmarked) [Example 6, [1-{(2-Amino-ethyl)-[(2-methyl-2-phenyl-propylcarbamoyl)-methyl]-carbamoyl}-2-(3H-imidazol-4-yl)-ethyl]-carbamic acid benzyl ester] | > 1 |  |  |
| 8.3 | 0.065 | C[C@H](c1ccccc1)N(CC(=O)NCC(C)(C)c1ccccc1)C(=O)[C@H](Cc1c[nH]cn1)NC(=O)OCc1ccccc1 [Example 2, Benzyl N-((1S)-1-(1H-4-imidazolylmethyl)-2-2-[(2-methyl-2-phenylpropyl)amino]-2-oxoethyl[(1R)-1-phenylethyl]amino-2-oxoethyl)carbamate] | 1 |  |  |
| 5 | 0.018 | COC(=O)CCN(CC(=O)NCC(C)(C)c1ccccc1)C(=O)[C@H](Cc1c[nH]cn1)NC(=O)OCc1ccccc1 [Example 4, Methyl 3-([(2S)-2-[(benzyloxy)carbonyl]amino-3-(1H-4-imidazolyl)propanoyl]-2-[(2-methyl-2-phenylpropyl)amino]-2-oxoethylamino)propanoate] | 0.1 |  |  |
| 4.8 | 0.019 | COCCN(CC(=O)NCC(C)(C)c1ccccc1)C(=O)C(Cc1cnc[nH]1)NC(=O)OCc1ccccc1 (centres unmarked) [Example 8, (2-(3H-Imidazol-4-yl)-1-{(2-methoxy-ethyl)-[(2-methyl-2-phenyl-propylcarbamoyl)-methyl]-carbamoyl}-ethyl)-carbamic acid benzyl ester] | 0.2 |  |  |
| 4 | 0.007 | CN(C)C(=O)CCN(CC(=O)NCC(C)(C)c1ccccc1)C(=O)C(Cc1cnc[nH]1)NC(=O)OCc1ccccc1 (centres unmarked) [Example 13, [1-{(2-Dimethylcarbamoyl-ethyl)-[(2-methyl-2-phenyl-propylcarbamoyl)-methyl]-carbamoyl}-2-(3H-imidazol-4-yl)ethyl]-carbamic acid benzyl ester] |  |  |  |
| 2.3 | < 0.001 | CC(C)(CNC(=O)CN(CCC(=O)O)C(=O)[C@H](Cc1c[nH]cn1)NC(=O)OCc1ccccc1)c1ccccc1 [Example 5, 3-([(2S)-2-[(Benzyloxy)carbonyl]amino-3-(1H-4-imidazolyl)propanoyl]-2-[(2-methyl-2-phenylpropyl)amino]-2-oxoethylamino)propanoic acid] | 1 |  |  |
| 2.2 | 0.034 | CC(C)OC(=O)CCN(CC(=O)NCC(C)(C)c1ccccc1)C(=O)[C@H](Cc1c[nH]cn1)NC(=O)OCc1ccccc1 [Example 12, 3-{[2-Benzyloxycarbonylamino-3-(3H-imidazol-4-yl)-propionyl]-[(2-methyl-2-phenyl-prolylcarbamoyl)-methyl]-amino}-propionic acid isopropyl ester] |  |  |  |
| 0.25 | 0.004 | CC(OC(=O)NC(Cc1c[nH]cn1)C(=O)N(CC(=O)NCC(C)(C)c1ccccc1)Cc1ccc(OCc2ccccc2)cc1)c1ccccc1 (centres unmarked) [Example 10, [1-{(4-Benzyloxy-benzyl)-[(2-methyl-2-phenyl-propylcarbamoyl)-methyl]-carbamoyl}-2-(1H-imidazol-4-yl)-ethyl]-carbamic acid 1-phenyl-ethyl ester] | 0.01 |  |  |
| 0.098 | 0.001 | CC(C)(CNC(=O)CN(CC(C)(C)c1ccccc1)C(=O)[C@H](Cc1c[nH]cn1)NC(=O)OCc1ccccc1)c1ccccc1 [Example 3, Benzyl N-[(1S)-1-(1H-4-imidazolylmethyl)-2-((2-methyl-2-phenylpropyl)2-[(2-methyl-2-phenylpropyl)amino]-2-oxoethylamino)-2-oxoethyl]carbamate] | 0.01 |  |  |
